# Key:
# [1] = biological target: T1, GCase (Homo sapiens, UniProt P04062); set-up: method as in earlier work; settings: 100 μM; ref 20a; cited from earlier work
# T1 sequence (P04062 40-536): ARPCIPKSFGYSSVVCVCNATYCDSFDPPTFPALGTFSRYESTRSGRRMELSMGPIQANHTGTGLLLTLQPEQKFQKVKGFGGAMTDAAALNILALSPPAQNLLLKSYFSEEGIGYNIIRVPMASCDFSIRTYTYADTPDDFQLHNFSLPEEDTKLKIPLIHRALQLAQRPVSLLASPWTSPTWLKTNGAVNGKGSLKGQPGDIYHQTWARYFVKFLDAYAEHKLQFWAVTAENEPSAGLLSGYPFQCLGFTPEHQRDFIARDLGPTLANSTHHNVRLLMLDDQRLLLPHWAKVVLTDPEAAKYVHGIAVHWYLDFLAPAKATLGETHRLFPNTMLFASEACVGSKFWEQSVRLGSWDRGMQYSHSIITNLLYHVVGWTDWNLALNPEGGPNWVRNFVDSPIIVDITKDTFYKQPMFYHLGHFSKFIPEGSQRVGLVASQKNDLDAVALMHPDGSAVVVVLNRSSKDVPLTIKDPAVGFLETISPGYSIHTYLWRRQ
# [2] = biological target: T1, GCase; assay: Inhibitory activity towards human GCase in leukocyte extracts from healthy donors; format: biochemical; set-up: screened towards GCase from leukocytes isolated from healthy donors (controls); Isolated leukocytes were disrupted by sonication; from tissue; host or cells: pooled human leukocytes from healthy donors, sonicated homogenate; settings: for IC50: GCase from leukocytes of healthy donors, 4-methylumbelliferyl-β-D-glucoside 3.33 mM; for rp/n (multivalent effect): relative potency divided by number of binding units n; for rp (relative potency): with respect to monovalent compound 18; for inhibition at 1000 µM: human leukocyte extracts, inhibitor 1 mM, 37 °C, read-out: GCase inhibition (percentage inhibition)
# Description: The compounds were screened in extracts from a pool of human leucocytes isolated from healthy donors (1 mM inhibitor concentration, 37 °C and optimal pH conditions, see Experimental Section). […] Isolated leukocytes were disrupted by sonication, and a micro BCA protein assay kit (Sigma‐Aldrich) was used to determine the total protein amount for the enzymatic assay, according to the manufacturer instructions. Enzyme activity was measured in a flat‐bottomed 96‐well plate. […] Percentage GCase inhibition is given with respect to the control (without iminosugar). Data are mean ± SD (n=3).
# Data are mean ± SD (n=3). Data obtained were fitted using the Origin Microcal program (see the Supporting Information file for further details). […]
# leukocytes isolated from healthy donors (controls). Isolated leukocytes were disrupted by sonication, and a micro BCA protein assay kit (Sigma –Aldrich) was used to determine the total protein amount for the enzymatic assay, according to the manufactu rer instructions. Enzyme activity was measured in a flat - […]
# GCase inhibition is given with respect to the control (without iminosugar). Data are mean ± SD (n=3).
# The corresponding calculated
# IC50 determination: The IC50 values of inhibitors against GCase were determined by measuring the initial […]
# Data are mean ± SD (n=3). Data obtained were fitted to the following equation using the Origin Microcal program. where Vi/Vo, represent the ratio between the activity measured in the presence of the inhibitor (Vi) and the activity of the control without the inhibitor (V0), “x” the inhibitor concentration, Max and Min, the maximal and minimal enzymatic activity observed, respectively.
Compound,Increase of enzyme activity [1] [fold],IC50 [2] [µM],rp/n (multivalent effect) [2],rp (relative potency) [2],inhibition at 1000 µM [2] [%]
CCCCCCCCN1CC(O)C(O)C(O)C1 (stereo not shown),1.25,,,,
O=C(CCCCC(=O)NC(COCc1cn(CCCCCCCCCN2C[C@@H](O)C(O)[C@H](O)C2)nn1)(COCc1cn(CCCCCCCCCN2C[C@@H](O)C(O)[C@H](O)C2)nn1)COCc1cn(CCCCCCCCCN2C[C@@H](O)C(O)[C@H](O)C2)nn1)NC(COCc1cn(CCCCCCCCCN2C[C@@H](O)C(O)[C@H](O)C2)nn1)(COCc1cn(CCCCCCCCCN2C[C@@H](O)C(O)[C@H](O)C2)nn1)COCc1cn(CCCCCCCCCN2C[C@@H](O)C(O)[C@H](O)C2)nn1 [Compound 15],,11 ± 3,8,45,
OCc1cn(CCCCCCCCCN2C[C@@H](O)C(O)[C@H](O)C2)nn1 [Compound 18],,500 ± 50,,,~70
NC(COCc1cn(CCCCCCCCCN2C[C@@H](O)C(O)[C@H](O)C2)nn1)(COCc1cn(CCCCCCCCCN2C[C@@H](O)C(O)[C@H](O)C2)nn1)COCc1cn(CCCCCCCCCN2C[C@@H](O)C(O)[C@H](O)C2)nn1 [Compound 11],,27 ± 3,6,19,100
OC1[C@H](O)CN(CCCCCCCCCn2cc(COCC(COCc3cn(CCCCCCCCCN4C[C@@H](O)C(O)[C@H](O)C4)nn3)(COCc3cn(CCCCCCCCCN4C[C@@H](O)C(O)[C@H](O)C4)nn3)COCc3cn(CCCCCCCCCN4C[C@@H](O)C(O)[C@H](O)C4)nn3)nn2)C[C@H]1O [Compound 13],,9 ± 4,14,56,
OC1[C@H](O)CN(CCCCCCCCCn2cc(COC[C@@H](OCc3cn(CCCCCCCCCN4C[C@@H](O)C(O)[C@H](O)C4)nn3)[C@@H](OCc3cn(CCCCCCCCCN4C[C@@H](O)C(O)[C@H](O)C4)nn3)[C@H](OCc3cn(CCCCCCCCCN4C[C@@H](O)C(O)[C@H](O)C4)nn3)[C@@H](COCc3cn(CCCCCCCCCN4C[C@@H](O)C(O)[C@H](O)C4)nn3)OCc3cn(CCCCCCCCCN4C[C@@H](O)C(O)[C@H](O)C4)nn3)nn2)C[C@H]1O [Compound 14],,6 ± 2,14,83,
